Reference: US7767789B2, “Truncated proteins as cancer markers” (University Hopitals of Cleveland, priority 2005, dated 2010)

System: CaSki cells
Experiment: DNA solubilization assay (apoptosis)
Assay type: cell-based, human
Method: Twenty-four hours before the end of the experiment, cells were labeled with [^3H]thymidine (specific activity, 93 Ci/mmol; 5 μCi/1×10^6 cells) for 16 h. The medium was removed, and cells were washed three times with fresh medium lacking [^3H]thymidine and were incubated in the same medium for an additional 6 h. At the end of incubation, the supernatant was stored, and cells were lysed in 0.5 ml lysis buffer (10 mM Tris-HCl, pH 7.5; plus 1 mM EDTA-0.2% Triton X-100) for 1 h at 4° C. The intact chromatin was separated from the fragmented DNA by 5 min centrifugation at 4° C. in Eppendorf microcentrifuge at 12,000×g. The supernatant (lysate) was stored, while the pellet was resuspended in 0.5 ml of 1% sodium dodecyl sulfate (SDS). The radioactivity contained in the supernatants, lysates; and pellets was counted in a scintillation counter, and DNA fragmentation was calculated as: [% Solubilized DNA]=([cpm supernatant+cpm lysates]/[cpm supernatant+cpm lysate+cpm pellet])×100.

Substance: 2′-3′-O-(4-benzoylbenzoyl)adenosine 5′-triphosphate [BzATP]
- DNA solubilization (100 μM BzATP for 9 h, baseline 1.9%): 7.8%
- DNA solubilization (100 μM BzATP for 9 h or 10 μM TNFα for 14 h): significantly increased DNA solubilization
